Patent publication US12344646B2, “Antibody-TNF α fusion protein and its preparation and applications” (priority 2018, dated 2025)
Starred links: 1 amine or outer side, 2 acyl side, 3 side chain; linkers in the order of their positions; H or OH if unused. Positions of bridges follow the written chain, without caps; N, C: chain ends. Non-standard residues stand in square brackets, D forms with d. Residues, ends and D or L forms follow the SMILES beside them. Chains are numbered I, II in the order given. Actinocin(9to1) = Cc1c2oc3c(C)ccc(C(=O)[*:1])c3nc-2c(C(=O)[*:2])c(N)c1=O; NMeV = CN[C@H](C(=O)O)C(C)C; Sar = CNCC(=O)O

What was measured:
[1] = system: SKOV-3 cells; experiment: Synergistic apoptosis with chemotherapeutic, SKOV-3; assay type: cell-based, human; conditions: 15 nM actinomycin D alone
Procedure: (§1) FIG. 9A: Her-2 positive human tumor cells (NCI-N87, SKBR-3 and SKOV-3) were cultured in the presence of the fusion protein, actinomycin D or both for 1 day; and cell viability was detected using a CCK-8 kit.
(§2) In the following, the Her-2 positive tumor cells were all obtained from the Cell Bank of the Chinese Academy of Sciences. […] Cell viability was detected by MTT assay.

[2] = system: NCI-N87 cells; experiment: Synergistic apoptosis with chemotherapeutic, NCI-N87; assay type: cell-based, human; set-up: effect on viability of NCI-N87 cells: dose or concentration left out as unconfirmed
Text: FIG. […]
as §2

[3] = system: SKBR-3 cells; experiment: Synergistic apoptosis with chemotherapeutic, SKBR-3; assay type: cell-based, human; conditions: 15 nM actinomycin D alone
Procedure: as §1, §2

[4] = system: Her-2 positive human gastric cancer cells NCI-N87; experiment: Cytotoxicity of Her-2 antibody-TNFα fusion protein on NCI-N87 cells; assay type: cell-based; conditions: at concentrations corresponding to the fusion protein below 20 ng/ml
Procedure: FIG. 7A: the NCI-N87 cells were incubated with the antibody-TNFα fusion protein at different concentrations for 1 day; and cell survival was detected using a CCK-8 kit.
The day before experiment, the cells ([…]) in growth medium (150 μl) were added onto a 96-well plate. […] Cell viability was detected using MTT assay and cell viability using CCK-8.

[5] = system: BT-474 cells; experiment: Synergistic apoptosis with chemotherapeutic, BT-474; assay type: cell-based, human; conditions: 33 μM or 11 μM doxorubicin alone

## Cc1c2oc3c(C)ccc(C(=O)N[C@@H]4C(=O)N[C@H](C(C)C)C(=O)N5CCC[C@H]5C(=O)N(C)CC(=O)N(C)[C@@H](C(C)C)C(=O)O[C@@H]4C)c3nc-2c(C(=O)N[C@@H]2C(=O)N[C@H](C(C)C)C(=O)N3CCC[C@H]3C(=O)N(C)CC(=O)N(C)[C@@H](C(C)C)C(=O)O[C@@H]2C)c(N)c1=O [actinomycin D] (I: T[dV]P[Sar][NMeV] / II: T[dV]P[Sar][NMeV]; ester I:1-I:C, II:1-II:C; linker I:N-II:N via Actinocin(9to1))
[1]
  impact on survival of SKOV-3 cells: Neither 100 ng/ml of Trastuzumab-TNFα fusion protein nor 15 nM of actinomycin D, when used alone, had an impact on survival of SKOV-3 cells
[2]; 15 nM actinomycin D alone
  apoptosis in NCI-N87 cells: 25%
[3]
  apoptosis in SKBR-3 cells: 70%

## TNFα
[4]
  apoptosis in NCI-N87 cells: induced no or little apoptosis

## COc1cccc2c1C(=O)c1c(O)c3c(c(O)c1C2=O)C[C@@](O)(C(=O)CO)C[C@@H]3O[C@H]1C[C@H](N)[C@H](O)[C@H](C)O1 [doxorubicin]
[2]
  effect on viability of NCI-N87 cells: little effect on viability
[5]
  effect on viability of BT-474 cells: little effect on viability
